Experiments:
[1] = tested on: Antikörperbildung gegen Schafserythrozyten (Plaquebildende Milzzellen); experiment: Antibody formation against sheep erythrocytes (JERNE plaque test, IgM plaque-forming spleen cells) in X-irradiated, bone-marrow-transplanted mice; format: in vivo, AB/Bln.-Mäuse
Text: (§1) Zum Nachweis der immunologischen Wirkungen wurden folgende Modelle verwendet: - "Kolonien - Bildung" ("Kolonien" - Bildungstest ) durch menschliche Knochenmarkzellen nach Kultivierung der Zellen mit dem menschlichen Granulocyten - Makrophagen - "Kolonien" - stimulierenden Faktor (hGM-CSF) und Spleninderivaten. - die Antikörperbildung gegen Schafserythrozyten ( Plaquebildende Milzzellen ) durch Ab/Bln.-Mäuse nach Röntgenbestrahlung (Tabelle 2).
Es wurden drei Monate alte AB/Bln.-Mäuse einmalig mit 800 cGy röntgenbestrahlt. Danach wurden die Tiere in drei Gruppen aufgeteilt und folgendermaßen weiterbehandelt: • Gruppe 1: Nach der Bestrahlung wurde den Tieren Knochenmarkzellen von Tieren des gleichen Inzuchtstammes transplantiert (Injektion von je 5 mal 10⁶ Knochenmarkzellen pro Tier). […] In differenten Zeitabständen nach der Bestrahlung und während der DAc-hSP5-Behandlung wurde mittels des JERNE-Plaque-Testes die Fähigkeit der Tiere untersucht, Antikörper zu bilden. • Gruppe 2: Gleiche Behandlung der Tiere wie in Gruppe 1, jedoch keine Therapie der Tiere mit DAc-hSP5. • Gruppe 3: Alleinige Röntgenbestrahlung der Tiere; keine Transplantation syngener Knochenmarkzellen, keine Therapie der Tiere mit DAc-hSP5.
Fünf Tage vor der Bestimmung der IgM Plaque-bildenden Milzzellen (Tage, angegeben in Tabelle 2) wurden die Tiere mit 5 x 10⁸ Schafserythrozyten immunisiert (intaperitoneale Applikation). Methodik: Eckert et.al., Biomed. Biochem. Acta, 1985, (44), 1239.

[2] = tested on: menschliche Knochenmarkzellen; experiment: Colony formation test: human bone marrow cells cultured with hGM-CSF and splenin derivatives; format: cell-based; conditions: human bone marrow cells with hGM-CSF; Tab.1, Nr.6
Text: as §1
Stimulierung des Wachstums und der Reifung von Knochenmarkstammzellen (in vitro)
Die Anzahl der gebildeten "Kolonien" ist dabei ein Maß für die mitotische bzw. differenzierende Wirkung der Faktoren auf die Knochenmarkzellen. Da Thymopentin in diesem Testsystem (Tab.1, Nr.6) keine Wirkung zeigte, ist anzunehmen, daß die immunstimulierende Wirkung von Timunox nicht über eine Wirkung auf Stammzellen des Knochenmarks zustande kommt.

Substance	Effekt auf die Antikörperbildung ([1]; 1 µg per animal i.p. three times weekly)	Effekt auf die Antikörperbildung ([1]; 2 µg per animal i.p. three times weekly)	Effekt auf die Antikörperbildung ([1]; 4 µg per animal i.p. three times weekly)	Effekt auf die Antikörperbildung ([1]; 8 µg per animal i.p. three times weekly)	Effekt auf die Antikörperbildung ([1]; 10 ug per animal i.p. three times weekly)	Effekt auf die Antikörperbildung ([1]; 20 µg per animal i.p. three times weekly)	Effekt auf die Antikörperbildung ([1]; 50 µg per animal i.p. three times weekly)	Antikörperbildung (IgM Plaque-bildende Milzzellen) ([1]; 800 cGy, syngeneic bone marrow transplant, 10 µg per animal i.p. three times weekly, Tabelle 2)	Wirkung im "Kolonien"-Bildungstest (Anzahl der gebildeten "Kolonien") [2]
(N^α-Acetyl)-arginyl-(N^ε-acetyl)-lysylalanylvalyltyrosin [DAc-hSP5]	nicht wirksam	nicht wirksam	nicht wirksam	suboptimal	optimalen Effekt	Effekt wie nach der von 10 ug	Effekt wie nach der von 10 ug	beschleunigt zu einer normalen Antikörperbildung befähigt	–
Thymopentin	–	–	–	–	–	–	–	–	keine Wirkung

— patent EP0410372A1, “Process for preparing human splenin derivatives” (BERLIN-CHEMIE AG, priority 1989, dated 1991)
